Reference: US20250040554A1, “NEW USES OF PHENMEDIPHAM AND HERBICIDAL COMBINATIONS COMPRISING PHENMEDIPHAM” (BAYER AKTIENGESELLSCHAFT, priority 2021, published 2025)

Assays:
Assay type in all cases: in vivo
BROTE=Bromus tectorum = assay: Greenhouse weed control trial BROTE; conditions: 25 DAA
Source text: (§1) The respective (combinations of) materials were applied to weed plants in the greenhouse or in the field at the respective growth stage indicated hereinafter for the different weed species mentioned below. The respective (combinations of) active ingredients were also applied to corn, cotton and soybean crop plants, and the selectivity (damage) in these crop plants rated (assessed).
(§2) Visual scoring of the damage to the trial plants took place after the time mentioned in the respective Table—indicated in number of Days After Application (DAA). Damage and development of all above-ground parts of the respective plants was recorded. Visual rating was done on a percentage scale in relation to the untreated control (100%=all plants dead; 50%=green plant biomass reduced by 50%, and 0%=no discernible difference=like control plot).
(§3) The trials in the greenhouse were sprayed with an application volume of 300 L/ha with an automated track sprayer. The plots in the field were sprayed with an application volume of 140 L/ha with a hand held spray boom.
In greenhouse selectivity trials and trials herbicidal activity trials against weed plants were investigated in post-emergence application of the respective material(s).
Herbicidal activity against different weeds (undesired plants) was calculated as follows.
(§4) wherein • A, B=respective value in percent of active ingredient A at a dose rate of a g/ha, ingredient B at a dose rate of b g/ha • E^C=Expected value according to Colby (S. R. Colby; Weeds 15 (1967), 20-22) in % at a dose rate of a+b, each in g/ha • Δ=Difference (in %) between measured value E and expected value E^C (%) (measured value minus expected value)
• measured value E is greater than E^C:->synergism (+Δ) • measured value E is equal to E^C:->additive effect • measured value E is smaller than E^C:->antagonism (−Δ)
The weed control activity of different (combinations of) materials was investigated in greenhouse trials for the following weed species: • STEME=Stellaria media • ECHCG=Echinochloa crus-galli • BROTE=Bromus tectorum
Phenmedipham amd Mesotrione were applied at varying application rates (Dose Rate) to the weed plant species STEME, ECHCG and BROTE. The results are shown in Tables 2a to 2c as the % control when assessed 25 days after application (25 DAA).
In all the trials of Table Tables 2a to 2c Mero® (rapeseed oil methyl ester) was added to the respective spray mixture in an amount corresponding to 1 L/ha for PMP, 1 L/ha for MST, and 2 L/ha for mixtures of PMP+MST.

BIDPI=Bidens pilosa = assay: Weed control field trial BIDPI
Source text: as §1, §2, §3, §4
(§5) The growth stages of the different weed species are indicated according to the BBCH monograph “Growth stages of mono- and dicotyledonous plants”, 2nd edition, 2001, ed. Uwe Meier, Federal Biological Research Centre for Agriculture and Forestry (Biologische Bundesanstalt für Land und Forstwirtschaft).
(§6) After the harmful plants had emerged, they were treated, at the respective growth stage indicated, with the respective materials as indicated at a water application rate of 140 L/ha.
(§7) After the treatment (21 or 35 days after application of the respective material), the herbicidal activity of respective material was scored visually at the same time by comparing the differently treated plots with the untreated control plots. The score figures of the different plots were averaged.
(§8) The dose rates of herbicidal ingredients used in each case are indicated for the respective active ingredient and refer to the amount of active ingredient per hectare (g/ha).
(§9) The weed control activity of different (combinations of) herbicidal active ingredients was investigated in field trials for the following weed species: • AMAVI=Amaranthus viridis • IPOAO=Ipomoea aristolochiaefolia • EPHHL=Euphorbia heterophylla • BIDPI=Bidens pilosa • BRADC=Brachiaria decumbens • ELEIN=Eleusine indica • CCHEC=Cenchrus echinatus
(§10) The growth stage of AMAVI was BBCH 13, the growth stage of IPOAO was BBCH 15, the growth stage of EPHHL was BBCH 13, the growth stage of BIDPI was BBCH 14, the growth stage of BRADC was BBCH 23, the growth stage of ELEIN was BBCH 11 and the growth stage of CCHEC was BBCH 12 at the time of application of the respective material.
(§11) Phenmedipham and Mesotrione were applied at varying application rates (Dose Rate) to the different species of weed plants. The results are shown in Tables 3a to 3e as the % control when assessed 21 and 35 days after application (DAA), respectively.
(§12) In all the trials of Tables 3a to 3e Mero® (rapeseed oil methyl ester) was added to the respective spray mixture in an amount corresponding to 1 L/ha for PMP, 1 L/ha for MST, and 2 L/ha for mixtures of PMP+MST.

ELEIN=Eleusine indica = assay: Weed control field trial ELEIN
Source text: as §1, §2, §3, §4, §5, §6, §7, §8, §9, §10, §11, §12

CCHEC=Cenchrus echinatus = assay: Weed control field trial CCHEC
Source text: as §1, §2, §3, §4, §5, §6, §7, §8, §9, §10, §11, §12

[1] = tested on: AMARE=Amaranthus retroflexus; assay: Weed control field trial AMARE; conditions: 15 DAA
Source text: as §1, §2, §4
After the harmful plants had emerged, they were treated, at the respective growth stage indicated, with the respective materials as indicated at a water application rate of 187 L/ha.
After the treatment (15 days after the treatment), the herbicidal activity of respective material was scored visually at the same time by comparing the differently treated plots with the untreated control plots. The score figures of the different plots were averaged.
as §8
The weed control activity of different (combinations of) herbicidal active ingredients was investigated in field trials for the following weed species: • AMARE=Amaranthus retroflexus • KCHSC=Kochia scoparia • PANRA=Panicum ramosum
The growth stage of AMARE was BBCH 19, the growth stage of KCHSC was BBCH 19 and the growth stage of PANRA was BBCH 22 at the time of application of the respective material.
Phenmedipham and the respective aroylcyclohexanedione herbicide were applied at varying application rates (Dose Rate) to the different species of weed plants. The results are shown in Tables 4a to 4d as the % control when assessed 15 days after application (DAA), respectively.
In all the trials of Tables 4a to 4d Mero® (rapeseed oil methyl ester) was added to the respective spray mixture in an amount corresponding to 1 L/ha for PMP, 1 L/ha for the respective aroylcyclohexanedione herbicide, and 2 L/ha for mixtures of PMP+the respective aroylcyclohexanedione herbicide.

CS(=O)(=O)c1ccc(C(=O)C2C(=O)CCCC2=O)c([N+](=O)[O-])c1 [MST, 2-[4-(methylsulfonyl)-2-nitrobenzoyl]cyclohexane-1,3-dione]
% control BROTE (BROTE=Bromus tectorum; 12.5 g/ha): 30%
% control BROTE (BROTE=Bromus tectorum; 25 g/ha): 30%
% control BROTE (BROTE=Bromus tectorum; 50 g/ha): 35%
% control BROTE (BROTE=Bromus tectorum; 75 g/ha): 40%
% control BIDPI (BIDPI=Bidens pilosa; 25 g/ha, 21 DAA): 80%
% control BIDPI (BIDPI=Bidens pilosa; 25 g/ha, 35 DAA): 80%
% control BIDPI (BIDPI=Bidens pilosa; 50 g/ha, 21 DAA): 80%
% control BIDPI (BIDPI=Bidens pilosa; 50 g/ha, 35 DAA): 80%
% control ELEIN (ELEIN=Eleusine indica; 25 g/ha, 21 DAA): 0%
% control ELEIN (ELEIN=Eleusine indica; 25 g/ha, 35 DAA): 0%
% control ELEIN (ELEIN=Eleusine indica; 50 g/ha, 21 DAA): 17%
% control ELEIN (ELEIN=Eleusine indica; 50 g/ha, 35 DAA): 17%
% control CCHEC (CCHEC=Cenchrus echinatus; 25 g/ha, 35 DAA): 0%
% control CCHEC (CCHEC=Cenchrus echinatus; 50 g/ha, 21 DAA): 17%
% control CCHEC (CCHEC=Cenchrus echinatus; 50 g/ha, 35 DAA): 0%
% control AMARE ([1]; 20 g/ha): 25%
% control AMARE ([1]; 40 g/ha): 30%
% control AMARE ([1]; 60 g/ha): 40%
% control AMARE ([1]; 80 g/ha): 45%
% control AMARE ([1]; 100 g/ha): 50%

COC(=O)Nc1cccc(OC(=O)Nc2cccc(C)c2)c1 [PMP, 3-[(methoxyformyl)amino]phenyl (3-methylphenyl)carbamate]
% control BROTE (BROTE=Bromus tectorum; 12.5 g/ha): 0%
% control BROTE (BROTE=Bromus tectorum; 25 g/ha): 0%
% control BROTE (BROTE=Bromus tectorum; 50 g/ha): 9%
% control BROTE (BROTE=Bromus tectorum; 75 g/ha): 0%
% control BROTE (BROTE=Bromus tectorum; 100 g/ha): 0%
% control BROTE (BROTE=Bromus tectorum; 125 g/ha): 0%
% control BROTE (BROTE=Bromus tectorum; 300 g/ha): 20%
% control BIDPI (BIDPI=Bidens pilosa; 75 g/ha, 21 DAA): 0%
% control BIDPI (BIDPI=Bidens pilosa; 75 g/ha, 35 DAA): 0%
% control BIDPI (BIDPI=Bidens pilosa; 100 g/ha, 21 DAA): 0%
% control BIDPI (BIDPI=Bidens pilosa; 100 g/ha, 35 DAA): 0%
% control BIDPI (BIDPI=Bidens pilosa; 125 g/ha, 21 DAA): 0%
% control BIDPI (BIDPI=Bidens pilosa; 125 g/ha, 35 DAA): 0%
% control BIDPI (BIDPI=Bidens pilosa; 250 g/ha, 21 DAA): 0%
% control BIDPI (BIDPI=Bidens pilosa; 250 g/ha, 35 DAA): 0%
% control ELEIN (ELEIN=Eleusine indica; 75 g/ha, 21 DAA): 0%
% control ELEIN (ELEIN=Eleusine indica; 75 g/ha, 35 DAA): 0%
% control ELEIN (ELEIN=Eleusine indica; 100 g/ha, 21 DAA): 0%
% control ELEIN (ELEIN=Eleusine indica; 100 g/ha, 35 DAA): 0%
% control ELEIN (ELEIN=Eleusine indica; 125 g/ha, 21 DAA): 0%
% control ELEIN (ELEIN=Eleusine indica; 125 g/ha, 35 DAA): 0%
% control ELEIN (ELEIN=Eleusine indica; 250 g/ha, 21 DAA): 0%
% control ELEIN (ELEIN=Eleusine indica; 250 g/ha, 35 DAA): 0%
% control CCHEC (CCHEC=Cenchrus echinatus; 75 g/ha, 21 DAA): 0%
% control CCHEC (CCHEC=Cenchrus echinatus; 75 g/ha, 35 DAA): 0%
% control CCHEC (CCHEC=Cenchrus echinatus; 100 g/ha, 21 DAA): 0%
% control CCHEC (CCHEC=Cenchrus echinatus; 100 g/ha, 35 DAA): 0%
% control CCHEC (CCHEC=Cenchrus echinatus; 125 g/ha, 21 DAA): 0%
% control CCHEC (CCHEC=Cenchrus echinatus; 125 g/ha, 35 DAA): 0%
% control CCHEC (CCHEC=Cenchrus echinatus; 250 g/ha, 21 DAA): 0%
% control CCHEC (CCHEC=Cenchrus echinatus; 250 g/ha, 35 DAA): 0%
% control AMARE ([1]; 150 g/ha): 0%
% control AMARE ([1]; 300 g/ha): 5%
